Several values for one entry are separate records, joined by “and”; a condition that tells them apart may be missing. Equal entries are not always repeated. Inconclusive results and toxic doses are left out.
System: L1210 leukemia ip in BDF1 mice, survival T/C
Assay: NCI In Vivo Anticancer Drug Screen. Data for tumor model L1210 Leukemia (intraperitoneal) in B6D2F1 (BDF1) mice
Conditions: endpoint: mean survival time, higher = longer survival
Method in brief: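 Read-out is survival time, reported as the treated-group measurement over the vehicle-control measurement.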

[1] = dose: 100.0 mg/kg/injection, schedule: Q01DX009 (ip), vehicle: Klucel (hydroxypropylcellulose) (HPC)
[2] = dose: 200.0 mg/kg/injection, schedule: Q01DX009 (ip), vehicle: Klucel (hydroxypropylcellulose) (HPC)
[3] = dose: 50.0 mg/kg/injection, schedule: Q01DX009 (ip), vehicle: saline with Tween-80
[4] = dose: 100.0 mg/kg/injection, schedule: Q01DX009 (ip), vehicle: saline with Tween-80
[5] = dose: 100.0 mg/kg/injection, schedule: Q04DX002 (ip), vehicle: saline with Tween-80
[6] = dose: 200.0 mg/kg/injection, schedule: Q01DX009 (ip), vehicle: saline with Tween-80
[7] = dose: 200.0 mg/kg/injection, schedule: Q04DX002 (ip), vehicle: saline with Tween-80
[8] = dose: 100.0 mg/kg/injection, schedule: Q04DX003 (ip), vehicle: Klucel (hydroxypropylcellulose) (HPC)
[9] = dose: 200.0 mg/kg/injection, schedule: Q04DX003 (ip), vehicle: Klucel (hydroxypropylcellulose) (HPC)
[10] = dose: 400.0 mg/kg/injection, schedule: Q04DX003 (ip), vehicle: Klucel (hydroxypropylcellulose) (HPC)
[11] = dose: 100.0 mg/kg/injection, schedule: Q01DX001 (ip), vehicle: saline
[12] = dose: 200.0 mg/kg/injection, schedule: Q01DX001 (ip), vehicle: saline
[13] = dose: 400.0 mg/kg/injection, schedule: Q01DX001 (ip), vehicle: saline
[14] = dose: 400.0 mg/kg/injection, schedule: Q01DX009 (ip), vehicle: saline with Tween-80

## COc1ccc(Cl)cc1NC(=O)Nc1cccc(F)c1
[1]
  T/C: 97 % of control
[2]
  T/C: 97 % of control
dose: 400.0 mg/kg/injection, schedule: Q01DX009 (ip), vehicle: Klucel (hydroxypropylcellulose) (HPC)
  T/C: 97 % of control

## CCOC(=N)Cc1ccccc1
dose: 12.5 mg/kg/injection, schedule: Q04DX002 (ip), vehicle: Klucel (hydroxypropylcellulose) (HPC)
  T/C: 100 % of control
dose: 25.0 mg/kg/injection, schedule: Q04DX002 (ip), vehicle: Klucel (hydroxypropylcellulose) (HPC)
  T/C: 103 % of control
dose: 50.0 mg/kg/injection, schedule: Q04DX002 (ip), vehicle: Klucel (hydroxypropylcellulose) (HPC)
  T/C: 106 % of control
dose: 100.0 mg/kg/injection, schedule: Q04DX002 (ip), vehicle: Klucel (hydroxypropylcellulose) (HPC)
  T/C: 110 % of control

## COc1cc2c3c(c4cc(OC)c(OC)cc4c2cc1OC)CN1CCC[C@H]1C3
dose: 4.0 mg/kg/injection, schedule: Q01DX015 (ip), vehicle: water
  T/C: 100 % of control
dose: 6.0 mg/kg/injection, schedule: Q01DX015 (ip), vehicle: water
  T/C: 100 % of control
dose: 6.25 mg/kg/injection, schedule: Q01DX015 (ip), vehicle: water
  T/C: 112 % of control
dose: 8.0 mg/kg/injection, schedule: Q01DX Z (ip), vehicle: water
  T/C: 107 % of control
dose: 9.0 mg/kg/injection, schedule: Q01DX015 (ip), vehicle: water
  T/C: 112 % of control
dose: 12.0 mg/kg/injection, schedule: Q01DX Z (ip), vehicle: water
  T/C: 100 % of control
dose: 14.0 mg/kg/injection, schedule: Q01DX015 (ip), vehicle: water
  T/C: 117 % of control
dose: 15.0 mg/kg/injection, schedule: Q02DX Z (ip), vehicle: water
  T/C: 108 % of control
dose: 25.0 mg/kg/injection, schedule: Q01DX015 (ip), vehicle: water
  T/C: 98 % of control
dose: 30.0 mg/kg/injection, schedule: Q02DX Z (ip), vehicle: water
  T/C: 150 % of control
dose: 250.0 mg/kg/injection, schedule: Q01DX Z (ip), vehicle: saline
  T/C: 154 % of control

## Cc1ccc(NC(=O)CC#N)c(C)c1
[3]
  T/C: 95 % of control
[4]
  T/C: 113 % of control
[5]
  T/C: 101 % of control
[6]
  T/C: 113 % of control
[7]
  T/C: 101 % of control

## O=C(NCCCl)NC1CCC2CCCCC2C1 (stereo unspecified)
dose: 100.0 mg/kg/injection, schedule: Q01DX001 (ip), vehicle: Klucel (hydroxypropylcellulose) (HPC)
  T/C: 100 % of control
[8]
  T/C: 92 % of control
dose: 200.0 mg/kg/injection, schedule: Q01DX001 (ip), vehicle: Klucel (hydroxypropylcellulose) (HPC)
  T/C: 102 % of control
[9]
  T/C: 97 % of control
dose: 400.0 mg/kg/injection, schedule: Q01DX001 (ip), vehicle: Klucel (hydroxypropylcellulose) (HPC)
  T/C: 92 % of control
[10]
  T/C: 97 % of control

## NCc1cc2c3c(c1)CCCN3CCC2
dose: 12.5 mg/kg/injection, schedule: Q01DX001 (ip), vehicle: saline
  T/C: 111 % of control
dose: 12.5 mg/kg/injection, schedule: Q01DX009 (ip), vehicle: saline
  T/C: 97 % of control
dose: 25.0 mg/kg/injection, schedule: Q01DX001 (ip), vehicle: saline
  T/C: 107 % of control
dose: 25.0 mg/kg/injection, schedule: Q01DX009 (ip), vehicle: saline
  T/C: 97 % of control
dose: 50.0 mg/kg/injection, schedule: Q01DX001 (ip), vehicle: saline
  T/C: 105 % of control
dose: 50.0 mg/kg/injection, schedule: Q01DX009 (ip), vehicle: saline
  T/C: 104 % of control

## CCCCOC(=O)CNC(=O)N(CC)C(=NCC)c1ccc(NC(=O)c2ccc(C(=O)Nc3ccc(C(=NCC)N(CC)C(=O)NCC(=O)OCCCC)cc3)cc2)cc1
dose: 1.87 mg/kg/injection, schedule: Q01DX015 (ip), vehicle: methylcellulose (MC)
  T/C: 106 % of control
dose: 7.5 mg/kg/injection, schedule: Q01DX015 (ip), vehicle: methylcellulose (MC)
  T/C: 162 % of control and 189 % of control
dose: 15.0 mg/kg/injection, schedule: Q01DX015 (ip), vehicle: methylcellulose (MC)
  T/C: 121 % of control

## CCOC(=O)N1C2c3ccccc3C3C(C21)N3C(=O)OCC (stereo unspecified)
[11]
  T/C: 105 % of control
[12]
  T/C: 102 % of control
[13]
  T/C: 108 % of control

## NC(=O)N1CCN(c2ccccc2)CC1
[8]
  T/C: 95 % of control
[9]
  T/C: 97 % of control
[10]
  T/C: 101 % of control

## CN(C)N=Nc1ccc(C(=O)N/N=C/c2ccc(Br)cc2)cc1
[8]
  T/C: 94 % of control
[9]
  T/C: 104 % of control
[10]
  T/C: 95 % of control

## O=[N+]([O-])c1cc(C(F)(F)C(F)(F)C(F)(F)c2ccc(O)c([N+](=O)[O-])c2)ccc1O
dose: 25.6 mg/kg/injection, schedule: Q04DX002 (ip), vehicle: saline with Tween-80
  T/C: 95 % of control
dose: 64.0 mg/kg/injection, schedule: Q04DX002 (ip), vehicle: saline with Tween-80
  T/C: 100 % of control
dose: 160.0 mg/kg/injection, schedule: Q04DX002 (ip), vehicle: saline with Tween-80
  T/C: 92 % of control

## CCNc1ccc([N+](=O)[O-])cn1
[1]
  T/C: 104 % of control
[2]
  T/C: 106 % of control

## CN(C)C(=O)c1ccc(O)cc1
[8]
  T/C: 104 % of control
[9]
  T/C: 92 % of control
[10]
  T/C: 97 % of control

## CC1CN=C(N)NC1=O (stereo unspecified)
dose: 100.0 mg/kg/injection, schedule: Q01DX Z (ip), vehicle: saline
  T/C: 104 % of control
dose: 200.0 mg/kg/injection, schedule: Q01DX Z (ip), vehicle: saline
  T/C: 119 % of control

## O=S(=O)(CCCCCCl)Cc1ccccc1
[11]
  T/C: 93 % of control
[12]
  T/C: 93 % of control
[13]
  T/C: 96 % of control

## O=C(O)/C(Br)=C(\Br)c1ccccc1
[4]
  T/C: 101 % of control
[6]
  T/C: 92 % of control
[14]
  T/C: 95 % of control

## O=C1CC2C3Nc4ccccc4C3CCN2C2=C1CC(OC(=O)c1ccccc1)CC2 (stereo unspecified)
dose: 12.5 mg/kg/injection, schedule: Q01DX009 (ip), vehicle: saline sonified
  T/C: 96 % of control
dose: 25.0 mg/kg/injection, schedule: Q01DX009 (ip), vehicle: saline sonified
  T/C: 98 % of control
dose: 50.0 mg/kg/injection, schedule: Q01DX009 (ip), vehicle: saline sonified
  T/C: 103 % of control
[8]
  T/C: 95 % of control

## O=C(CCl)N1CCN(C(=O)CCl)c2ccccc21
[11]
  T/C: 94 % of control
[12]
  T/C: 94 % of control
[13]
  T/C: 97 % of control

## CCC(C)COS(=O)(=O)c1ccc(C)cc1 (stereo unspecified)
[5]
  T/C: 103 % of control
[7]
  T/C: 103 % of control
dose: 400.0 mg/kg/injection, schedule: Q04DX002 (ip), vehicle: saline with Tween-80
  T/C: 100 % of control

## O/N=C/c1cccc(/C=N/O)c1
[3]
  T/C: 94 % of control
dose: 50.0 mg/kg/injection, schedule: Q04DX003 (ip), vehicle: saline with Tween-80
  T/C: 95 % of control
[4]
  T/C: 98 % of control
dose: 100.0 mg/kg/injection, schedule: Q04DX003 (ip), vehicle: saline with Tween-80
  T/C: 97 % of control
[6]
  T/C: 102 % of control
dose: 200.0 mg/kg/injection, schedule: Q04DX003 (ip), vehicle: saline with Tween-80
  T/C: 100 % of control
[14]
  T/C: 95 % of control
dose: 400.0 mg/kg/injection, schedule: Q04DX003 (ip), vehicle: saline with Tween-80
  T/C: 93 % of control

## O=C(NNc1ccccc1)C1C2CC3OC(=O)C1C3C2 (stereo unspecified)
dose: 100.0 mg/kg/injection, schedule: Q04DX003 (ip), vehicle: saline
  T/C: 93 % of control
dose: 200.0 mg/kg/injection, schedule: Q04DX003 (ip), vehicle: saline
  T/C: 98 % of control
dose: 400.0 mg/kg/injection, schedule: Q04DX003 (ip), vehicle: saline
  T/C: 96 % of control

## Brc1ccc(-c2csc(Nc3nc(-c4ccc(Br)cc4)cs3)n2)cc1
dose: 100.0 mg/kg/injection, schedule: Q01DX001 (ip), vehicle: carboxymethylcellulose (CMC)
  T/C: 102 % of control
dose: 200.0 mg/kg/injection, schedule: Q01DX001 (ip), vehicle: carboxymethylcellulose (CMC)
  T/C: 98 % of control
dose: 250.0 mg/kg/injection, schedule: Q01DX015 (ip), vehicle: carboxymethylcellulose (CMC)
  T/C: 100 % of control
dose: 400.0 mg/kg/injection, schedule: Q01DX001 (ip), vehicle: carboxymethylcellulose (CMC)
  T/C: 107 % of control
dose: 500.0 mg/kg/injection, schedule: Q01DX015 (ip), vehicle: carboxymethylcellulose (CMC)
  T/C: 100 % of control
dose: 750.0 mg/kg/injection, schedule: Q01DX015 (ip), vehicle: carboxymethylcellulose (CMC)
  T/C: 113 % of control
dose: 1000.0 mg/kg/injection, schedule: Q01DX015 (ip), vehicle: carboxymethylcellulose (CMC)
  T/C: 100 % of control

— PubChem BioAssay AID248 (DTP/NCI, 2004)
